# In patent US20220296521A1, “CARRIER-BASED FORMULATIONS AND RELATED METHODS” (Respira Therapeutics, Inc., priority 2019, published 2022):
# Test: Tapped density of bulk powder
# Assay type: physicochemical
# Procedure: “Tapped densities” or ρtapped as used herein were measured in a fashion similar to Method I, as described in USP <616> Bulk Density and Tapped Density of Powders. Tapped densities represent a closer approximation to particle density than poured bulk densities, with measured values that are approximately 20% less than the actual particle density.
# Tapped density was determined using a cylindrical cavity of known volume (0.593 cm^3). Powder was filled into this sample holder using a microspatula. The sample cell was then gently tapped on a countertop. As the sample volume decreased, more powder was added to the cell. The tapping and addition of powder steps were repeated until the cavity was filled and the powder bed no longer consolidated with further tapping. The tapped density is defined as the mass of this tapped bed of powder divided by the volume of the cavity.
row,Tapped density [g/mL],SMILES
1,0.16,"CC(C)C(=O)OCC(=O)[C@@]12O[C@H](C3CCCCC3)O[C@@H]1C[C@H]1[C@@H]3CCC4=CC(=O)C=C[C@]4(C)[C@H]3[C@@H](O)C[C@@]12C [Cic-B, ciclesonide]"
2,0.17,"CC(C)C(=O)OCC(=O)[C@@]12O[C@H](C3CCCCC3)O[C@@H]1C[C@H]1[C@@H]3CCC4=CC(=O)C=C[C@]4(C)[C@H]3[C@@H](O)C[C@@]12C [Cic-A, ciclesonide]"
